Test [1] has as its system hMDMs differentiated into M1 by IFNγ plus TNFα. In words: Reprogramming screen and dosage response on M1-like differentiated macrophages. Format: cell-based, human. The note with it: for EC (M2 Z-score cutoff): M2-activating compounds on M1-like macrophages (IFNγ plus TNFα), EC = concentration reaching Z-score cutoff; for Category: differentiated macrophages.
Experimental: Data were summarized from 3 independent experiments.
(§1) Human macrophages were seeded into optical 384-well plates. Sixteen hours later, medium in M1 plates were replaced by M1 differentiating medium (complete RPMI with 50 ng/mL IFNγ and 50 ng/mL TNFα) and medium in M2 plates by M2 differentiating medium (complete RPMI with 5 ng/mL IL-4 and 5 ng/mL IL-13). After 24 hrs cell differentiation, M1 plates (M1 macrophages) and M2 plates (M2 macrophages) were treated with M2-activating compounds and M1-activating compounds respectively for 24 hrs. Two independent experiments were performed with or without replacing differentiating medium right before treatment. Cell imaging and analysis were performed as indicated above.
To investigate whether the identified compounds could reprogram or reactivate macrophages after M1- or M2-like differentiation, we rescreened the hits on M1- or M2-activated macrophages. hMDMs were activated into M2-like macrophages by IL-4 plus IL-13 or M1-like macrophages by IFNγ plus TNFα. […] 24 hours later, cell images were taken and cell shapes were quantified.
(§2) We also rescreened the hits on differentiated macrophages in the presence of differentiating cytokines: either IL-4 plus IL-13 or IFNγ plus TNFα.
Test [2] relates to hMDMs differentiated into M2 by IL-4 plus IL-13. Kind of test: Reprogramming screen and dosage response on M2-like differentiated macrophages.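 As to all read-outs here: human monocyte-derived macrophages held 24 h in 5 ng/mL IL-4 plus IL-13 before 24 h compound exposure, with cell shape measured from images in 384-well plates.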 The note with it: for EC (M1 Z-score cutoff): Homo sapiens, Macrophage, 24 h, read-out: EC; for EC: M1-activating compounds on M2-like macrophages (IL-4 plus IL-13), EC = concentration reaching Z-score cutoff; for Category: differentiated macrophages.
Experimental: Shown are comparison of Z-scores between 5 μM or 10 μM of compounds. […] Shown are comparison of Z-scores between 5 μM or 10 μM of compounds. […] EC and fitness of 21 M1-polarizing (triangle) and 19 M2-polarizing compounds (circle) were calculated by the Michaelis-Menten equation and plotted. Data were summarized from 3 independent experiments.
as §1
To investigate whether the identified compounds could reprogram or reactivate macrophages after M1- or M2-like differentiation, we rescreened the hits on M1- or M2-activated macrophages. hMDMs were activated into M2-like macrophages by IL-4 plus IL-13 or M1-like macrophages by IFNγ plus TNFα. After removing the differentiating cytokines, M2-like macrophages were treated with each of the 166 M1-activating compounds and M1-like macrophages were treated with each of the 180 M2-activating compounds at a final concentration of either 5 μM and 10 μM. 24 hours later, cell images were taken and cell shapes were quantified. […] Dosage responses were carried out with 40 commercial available compounds (21 M1-activating and 19 M2-activating) on polarized macrophages.
as §2

The test system of another test is hMDMs. Kind of test: RNA-seq transcriptional response of hMDMs (GSEA, GO enrichment). The note with it: for macrophage phenotype at transcriptional and translational level: human macrophages; for gene expression of TPP modules (#30, #32) / gene expression of typical M1 modules (#7, #8): hMDMs, 24 hrs, GSEA. The test is classed as cell-based, human.
Test [3] concerns human monocyte-derived macrophages (hMDMs). In words: High throughput phenotypic screen of macrophage activation (cell shape, Z-score).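 As to all read-outs here: phalloidin and DAPI stained hMDMs imaged by high-content microscopy, cell eccentricity compared with DMSO control by T-test, round morphology scored negative, elongated positive.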 The test is classed as cell-based. Set-up: key to Average Z-value: Z-score vs DMSO; negative = round cells, positive = elongated. The note with it: for activation state induced in the screen: compounds regulating actin-cytoskeleton.
For a further test, the system named is M0 macrophages (hMDMs). In words: Dosage response of cell shape change on M0 macrophages. Format: cell-based, human. The note with it: M0 macrophages; for EC: EC = concentration inducing cell morphology changes to reach the M1 or M2 Z-score cutoff, Michaelis-Menten fit, 3 independent experiments, unit of the source corrected; for Max absolute Z-value: Max Z-score from Michaelis-Menten equation, negative = round, positive = elongated.

In test [4] the test system is subcutaneous B16F10 tumors. Kind of test: B16F10 melanoma model in B6 mice. The note with it: i.p. 1 mg/kg. The test is classed as in vivo, mouse.
For test [5], the system named is mouse bone marrow macrophages (BMMs). In words: Development and function of TAM/M2-like macrophages in vitro (qPCR, flow cytometry). Format: cell-based. The note with it: mouse BMMs, induced by IL4/IL13, 24 hours. The method, then:
DEGs were identified by edgeR at P<0.05 with at least 2 fold-change. Data for genes that were not classified as differentially expressed are plotted in black. […] Mouse BMMs were cultured in normal medium with or without 2.5 μM thiostrepton for 24 hrs (group 1), or cultured in B16F10 tumor cell conditioned medium (CM) with or without 2.5 μM thiostrepton for 24 hrs (group 2), or cultured with B16F10 tumor cell CM for 24 hrs first and then treated with 2.5 μM thiostrepton for another 24 hrs (group 3). The transcript levels of the indicated genes were quantified by qPCR. Data were summarized from two independent experiments. […] Mouse BMMs were treated with thiostrepton for 24 hrs. Untreated and treated macrophages were co-cultured with equal number of B16F10 melanoma cells for 12 hrs. The number of tumor cells were quantified by flow cytometry after subtracting macrophages from total number of cells. Data were summarized from three independent experiments. ** P<0.01 by T-test.
Expression of MHCII, CD80, iNOS, Arg1 and CD206 were quantified by flow cytometry. Shown are representative staining profiles of treated (red) and untreated (dark) TAMs from two independent experiments. […] Alternatively, mouse BMMs were polarized with IL-4/IL-13 (group 3) or lactic acid (group 5) for 24 hrs first and then either not treated or treated with […] thiostrepton for another 24 hrs. The transcript levels of the indicated genes were quantified by qPCR. Data are summarized from two independent experiments.
Mouse BMMs were not treated or treated with […] thiostrepton for 24 hours in normal medium (group 1) or in the presence of IL4/IL13 (group 2), or mouse BMMs were polarized with IL4/IL13 for 24 hours and then either not treated or treated with […] thiostrepton for 24 hours (group 3). RNA was isolated and the transcript levels of the indicated genes were quantified by PCR. Data, shown as mean±s.d., were summarized from two independent experiments. * P<0.05 and ** P<0.01 by T-test. […] Data are shown as mean±s.e.m. FIGS. 19C-19D show flow cytometry analysis of TAM (F4/80^+CD11b^+Ly6C^−Ly6G^−), inflammatory monocytes (F4/80′^intCD11b^+Ly6C^+Ly6G^−) and monocytes (F4/80^−CD11b^+Ly6C^+Ly6G^+) in the tumors of mice treated with DMSO, TA99, cucurbitacin I, and cucurbitacin I plus TA99 18 days after tumor engraftment. Shown are representative F4/80 versus CD11b staining profiles gating on CD45+ cells and MHCII histograms gating on macrophages from c.
Mouse bone marrow-derived macrophages (mBMM) were prepared as described previously^54. Briefly, fresh bone marrow cells were isolated from B6 mice. Cells were plated into 6-well plate with 1×10^6/mL in complete RPMI with 2-mercaptoethanol and cultured for 6 days with fresh medium change every 2 days. mBMMs were differentiated to resemble TAMs in the presence of 10 ng/mL mIL-4 and mIL-13 (Peprotech) or 25 mM lactate acid for 24 hrs or tumor conditioned medium (CM). To prepare CM, 70% confluent B16F10 cultured were replaced with fresh medium and the tumor medium was collected and filtered ([…]) 24 hrs later. The mixture of 3 volumes of tumor medium with 1 volume of complete RPMI for mBMM serves as the CM. Expression of Arg, Fizz1 and Vegfa were quantified by qPCR to assess the development of TAMs. Other genes of Tnf, Il1b, Nos2, Cxcl2, Ccl5, Ym1 and Tgfb serve as macrophage activating markers. To assay the tumor growth inhibition, mBMMs (10,000 cells per well in 96 well plate) were treated with thiostrepton for 24 hrs and then cocultured with equal number of B16 melanoma cells in fresh complete RPMI for 12 hrs. The conditioned medium treated or not treated with thiostrepton were collected and filtered. The numbers of B16 melanoma cells were cultured for 12 hrs with conditioned medium or conditioned medium heated at 95° C. for 5 min. Tumor cells were quantified by flow cytometry to determine the macrophage-dependent killing function. […]
On the technique in general: Real-time PCR tracks product formation cycle by cycle.

Consider `c1ccc2c(Oc3nc(Nc4ccc(N5CCOCC5)cc4)c4ncn(C5CCCCC5)c4n3)cccc2c1` [Purmorphamine], for which the EC (M2 Z-score cutoff) in test [1] (Homo sapiens, Macrophage, 24 h) came out at 2.35 µM.

As for `COCCNCc1ccc(-c2cc3nccc(Oc4ccc(NC(=S)NC(=O)Cc5ccc(F)cc5)cc4F)c3s2)nc1` [MGCD-265], the EC (M2 Z-score cutoff) in test [1] (Homo sapiens, Macrophage, 24 h) came out at 0.911 µM.

`CC(=O)O[C@H]1C(=O)[C@@]2(C)[C@H]([C@H](OC(=O)c3ccccc3)[C@]3(O)C[C@H](OC(=O)[C@H](O)[C@@H](NC(=O)c4ccccc4)c4ccccc4)C(C)=C1C3(C)C)[C@]1(OC(C)=O)CO[C@@H]1C[C@@H]2O` [Taxol]: in test [2], the EC (M1 Z-score cutoff) turned out to be 0.129 µM. Besides, in the test on hMDMs, the “macrophage phenotype at transcriptional and translational level” value is reported as “activated macrophages toward M1-like phenotype”. In addition, in test [3], the “activation state induced in the screen” value is “M1-activating”.

Take JTE 013: in test [1], the EC (M2 Z-score cutoff) came to 0.9381 µM and the Category result is given as “M2 (6 for M2-activated macrophages)”.

`O=C(c1ccc(/C=C/c2n[nH]c3ccccc23)cc1)N1CCNCC1` [KW 2449]: the EC (M2 Z-score cutoff) in test [1] (Homo sapiens, Macrophage, 24 h) came to 2.16 µM.

Take `NCCc1ccc(O)c(O)c1` [dopamine]: in the test with hMDMs, the “gene expression of TPP modules (#30, #32)” value (shortened to “gene expression … (#30, #32)”) is given as “up-regulated” and the “gene expression of typical M1 modules (#7, #8)” value (from here on “gene expression … (#7, #8)”) is “down-regulated”.

On to `COc1cc(Nc2c(C#N)cnc3cc(OCCCN4CCN(C)CC4)c(OC)cc23)c(Cl)cc1Cl` [Bostunib], for which, in test [1] (Homo sapiens, Macrophage, 24 h), the EC (M2 Z-score cutoff) amounted to 0.164 µM.

`CC[C@H](C)C(=O)O[C@H]1C[C@@H](C)C=C2C=C[C@H](C)[C@H](CC[C@@H]3C[C@@H](O)CC(=O)O3)[C@H]21` [lovastatin]: the EC (M2 Z-score cutoff) in test [1] (Homo sapiens, Macrophage, 24 h) is 0.442 µM.

With `CN1c2cc3c(cc2N=C(c2ccc(C(=O)O)cc2)c2ccccc21)C(C)(C)CCC3(C)C` [LE135], in the test on M0 macrophages (hMDMs), the Category entry was “M1 (−4 for M1-activated macrophages)”, the EC stood at 0.419 µM and the “Max absolute Z-value” was −8.912.

In the case of leptin: ligand of novel pathway, in the test on hMDMs, the “gene expression … (#30, #32)” value is recorded as “down-regulated” and the “gene expression … (#7, #8)” value was “up-regulated”.

For the compound `CO[C@H]1C[C@H](O[C@@H]2/C(C)=C/C[C@@H]3C[C@@H](C[C@]4(CC[C@H](C)[C@@H](C5CCCCC5)O4)O3)OC(=O)[C@@H]3C=C(C)/C(=N/O)[C@H]4OC/C(=C\C=C\[C@@H]2C)[C@]43O)O[C@@H](C)[C@@H]1O` [SELAMECTIN], in test [1] (Homo sapiens, Macrophage, 24 h), the EC (M2 Z-score cutoff) stood at 15 µM.

As for `CC(C)C[C@H](NC(=O)CNC(=O)c1cc(Cl)ccc1Cl)B(O)O` [MLN2238], in test [3] (cell shape Z-score of hMDMs averaged over the compounds listed for the Wiki pathway, compounds at 20 µM for 24 hours, positive values = M2-like), the “Average Z-value” turned out to be 7.13. Besides, the EC (M2 Z-score cutoff) in test [1] (Homo sapiens, Macrophage, 24 h) stood at 3.46 µM.

For `COc1cc2ncn(-c3cc(OCc4ccccc4C(F)(F)F)c(C(N)=O)s3)c2cc1OC` [GW-843682X], in test [1] (Homo sapiens, Macrophage, 24 h), the EC (M2 Z-score cutoff) was determined as 0.897 µM.

Regarding `CNC(=O)c1cc(Oc2ccc(NC(=O)Nc3ccc(Cl)c(C(F)(F)F)c3)c(F)c2)ccn1` [Regorafenib], in test [1] (Homo sapiens, Macrophage, 24 h), the EC (M2 Z-score cutoff) amounted to 2.88 µM.

Regarding `COC(=O)Nc1nc2ccc(Sc3ccccc3)cc2[nH]1` [Fenbendazole], the EC (M1 Z-score cutoff) in test [2] was 0.649 µM. Further, in the test on hMDMs, the “macrophage phenotype at transcriptional and translational level” value is “activated macrophages toward M1-like phenotype”. Moreover, the “activation state induced in the screen” value in test [3] was “M1-activating”.

For the compound `OC[C@H](Cc1ccccc1)Nc1nc(Oc2ccc3c(c2)CCC3)nc2c1ncn2Cc1ccc(-c2ccccc2)cc1` [QS 11], in test [1], the EC (M2 Z-score cutoff) is recorded as 0.2611 µM and the Category result is given as “M2 (6 for M2-activated macrophages)”.

Consider `O=C1NC(=O)c2c1c1c3ccccc3[nH]c1c1[nH]c3ccccc3c21` [Arcyriaflavin A], for which, in test [1], the EC (M2 Z-score cutoff) came to 1.342 µM and the Category entry is on record as “M2 (6 for M2-activated macrophages)”.

Consider `Cc1c(C(=O)Nc2ccc(N3C[C@@H](C)O[C@@H](C)C3)nc2)cccc1-c1ccc(OC(F)(F)F)cc1` [NVP-LDE225], for which the EC (M2 Z-score cutoff) in test [1] (Homo sapiens, Macrophage, 24 h) is 2.77 µM.

Take `CNC(=O)c1ccccc1Sc1ccc2c(/C=C/c3ccccn3)n[nH]c2c1` [Axitinib]: the EC (M2 Z-score cutoff) in test [1] (Homo sapiens, Macrophage, 24 h) was 0.591 µM.

With VEGF, in the test on hMDMs, the “gene expression … (#30, #32)” value is “down-regulated” and the “gene expression … (#7, #8)” value is recorded as “up-regulated”.

Regarding `CC(C)(C)n1nc(-c2cccc3ccccc23)c2c(N)ncnc21` [1-Naphthyl PP1], in test [1], the EC (M2 Z-score cutoff) was 2.072 µM and the Category result is “M2 (6 for M2-activated macrophages)”.

Take `CC(C)(O)/C=C/C(=O)[C@](C)(O)[C@H]1[C@H](O)C[C@@]2(C)[C@@H]3CC=C4[C@@H](C=C(O)C(=O)C4(C)C)[C@]3(C)C(=O)C[C@]12C` [Cucurbitacin I]: the B16F10 growth result in test [4] was “inhibited”. Moreover, in test [2], the EC amounted to 1.759 µM and the Category result was “M1 (−4 for M1-activated macrophages)”. Moreover, the “development and function of tumor-associated macrophages in vitro” value in test [5] is on record as “inhibits”. In the test on M0 macrophages (hMDMs), the Category entry was “M1 (−4 for M1-activated macrophages)”, the EC amounted to 0.342 µM and the “Max absolute Z-value” is −4.808.

As for `Cc1nc(Nc2ncc(C(=O)Nc3c(C)cccc3Cl)s2)cc(N2CCN(CCO)CC2)n1` [Dasatinib], in test [1] (Homo sapiens, Macrophage, 24 h), the EC (M2 Z-score cutoff) came to 0.762 µM.

Take `O=C(Nc1nc2ccc(NC(=O)C34CC5CC(CC(C5)C3)C4)cc2s1)c1ccccc1` [NVP 231]: in test [2], the EC came out at 5.745 µM and the Category entry is listed as “M1 (−4 for M1-activated macrophages)”. Besides, in test [3] (cell shape Z-score of hMDMs treated with compound at 20 µM for 24 hours, averaged over the compounds listed for the WikiPathways pathway, negative = M1-like, positive = M2-like), the “Average Z-value” is given as −4.79. Also, in the test on M0 macrophages (hMDMs), the Category entry is recorded as “M1 (−4 for M1-activated macrophages)”, the EC was determined as 2.25 µM and the “Max absolute Z-value” is recorded as −22.37.

For the compound `CNC(=O)c1cc(Oc2ccc(NC(=O)Nc3ccc(Cl)c(C(F)(F)F)c3)cc2)ccn1` [Sorafenib], the EC (M2 Z-score cutoff) in test [1] (Homo sapiens, Macrophage, 24 h) was 0.794 µM.

In the case of `NCCc1c[nH]c2ccc(O)cc12` [5HT, serotonin], in the test with hMDMs, the “gene expression … (#30, #32)” value is “down-regulated” and the “gene expression … (#7, #8)” value is listed as “up-regulated”.

With `CC(C)[C@]12O[C@H]1[C@@H]1O[C@]13[C@]1(O[C@H]1C[C@H]1C4=C(CC[C@@]13C)C(=O)OC4)[C@@H]2O` [triptolide], in test [1] (Homo sapiens, Macrophage, 24 h), the EC (M2 Z-score cutoff) came out at 0.0619 µM.
